Measurements reported in patent publication US20240382517A1, “Topical Pharmaceutical Skin Composition for the Delivery of Nitric Oxide in Combination with Other Topical Dermatologic Agents” (NOxy Health Products, Inc., priority 2023, published 2024).
Entries after “also recorded” stand apart in the source; their conditions may differ. Structures can show the parent of a compound that is named as a salt.

How the values were obtained:
Type in all cases: physicochemical
[1] = NOx production of mixed foams, Thermoscientific 42iQLS Gas Analyzer; conditions: 0.4 M, 0.5 M, 0.6 M ascorbic acid as first (A) solution + second (B) solution without BAC; compared to citric acid; FIG. 4
Procedure: Methods. Solutions A and B were agitated by vigorous shaking until they produced foams. Then, two pumps of foam A (from Solution A) and foam B (from Solution B) were added to a weigh boat, and then the resulting mixture was thoroughly mixed with a gloved finger for five seconds. The resulting mixture was then placed in the sample chamber for measurement using a Thermoscientific 42iQLS Gas Analyzer. The measured concentration of the NOx produced was recorded every ten seconds. Using the Ideal Gas Law, the mass in mols of NOx was calculated.
The first (A) solution was prepared as described in Example 1, except BAC was not included. The second (B) solution was prepared by dissolving salicylic acid in a stoichiometric amount of sodium hydroxide dissolved in water. Once all of the salicylic acid was dissolved, sodium nitrite and coco betaine were added. The first (A) and second (B) solutions were then mixed. A foam was produced upon the mixing/priming of the first (A) solution and the second (B) solution.
Three solutions of ascorbic acid (0.4 M, 0.5 M, and 0.6 M) were prepared and used as first (A) solutions. The second (B) solution was as provided in Example 1 except that BAC was not included. The solutions were poured into small foam dispensers. One squirt of foam from each of the first (A) solution and the second (B) solution was combined in a weight boat and NOx formation was measured.

[2] = Mixing of lidocaine HCl solution into the first (A) solution in a stable manner; conditions: first (A) solution not including BAC; monitoring time three minutes
Description: The monitoring time was three minutes.

[3] = NOx release from mixed liquids, Thermoscientific 42iQLS Gas Analyzer
Description: For the NO release testing, one mL of each solution was dispensed into a weight boat using the pipetter. A new pipette tip was used for each aliquot. For NO release measurements, the weigh boat was then placed into the sampling bin of a Thermoscientific 42iQLS Gas Analyzer, and the lid placed on top. The analyzer began measuring NOx released from the mixed liquid in the weigh boat as indicated by the rise of both the NO and NO2 measurements on the screen of the analyzer, a 10-minute timer was started.
Once the datalogger had collected 70 time points (700 seconds) of data: • 1. the data logging program was halted • 2. The weigh boat was removed from the chamber and disposed of in a separate room • 3. A fan was used to blow fresh air into the testing chamber for 10 seconds • 4. The next test was conducted when the analyzer measured less than 5 ppm total NOx […]
About 1 mL of Manuka honey was mixed with 1 mL of standard second (B) solution (not including BAC). […]

[4] = pH of lidocaine HCl solution, calibrated lab pH meter; conditions: 4 percent solution in water
Procedure: A 4% w/w solution of lidocaine in deionized water was prepared. The pH of the solution was measured using a conventional calibrated lab pH meter.

Compound	production of NOx [1]	reaction on mixing with the standard first (A) solution [2]	NOx release ([3]; 4 percent lidocaine HCl solution mixed with second (B) solution (no BAC) only, FIG. 6)	NOx release ([3]; 4 percent lidocaine HCl solution mixed with standard first (A) and second (B) solutions (no BAC), FIG. 7)	pH [4]
O=C1O[C@H]([C@@H](O)CO)C(O)=C1O [ascorbic acid]	lower levels of production of NOx than citric acid	–	–	–	–
CCN(CC)CC(=O)Nc1c(C)cccc1C [lidocaine HCl]	–	No reaction was observed	NO was produced; also recorded: Only a small amount of NOx was released	NO was also produced; also recorded: a large amount of NOx was released	4.16
